From publication PMC10545747, “Development of cyclopeptide inhibitors of cGAS targeting protein-DNA interaction and phase separation” (Nature Communications, 2023)
Several values for one entry are separate records, joined by “and”; a condition that tells them apart may be missing. Equal entries are not always repeated. Square brackets hold non-standard residues; d marks the D form. Peptide text beside a SMILES is read from it.

Legend:
[1] = Pharmacokinetics after intravenous administration; conditions: C57BL/6, mouse, whole blood, 10 mg/kg
Method: Whole blood samples were collected in EDTA-K2 surface-coated tubes at 0.083, 0.25, 0.5, 1, 2, 5, 7, 24 h post administration. The results were analyzed by LC-MS.

[2] = molecular target: T1, recombinant human cGAS enzyme (hcGAS-ΔN, residues 147–522) (Homo sapiens, UniProt Q8N884); test: RNA-based fluorescent biosensor assay of cGAS activity (2',3'-cGAMP formation), in vitro screening; assay type: biochemical
T1 construct: N-terminally truncated human cGAS (hcGAS-ΔN, residues 147–522); 6xHis-SUMO (N, cleaved yes); made in house; host or cells: Escherichia coli BL21 (DE3)
T1 sequence (Q8N884 147-522, stated change not applied): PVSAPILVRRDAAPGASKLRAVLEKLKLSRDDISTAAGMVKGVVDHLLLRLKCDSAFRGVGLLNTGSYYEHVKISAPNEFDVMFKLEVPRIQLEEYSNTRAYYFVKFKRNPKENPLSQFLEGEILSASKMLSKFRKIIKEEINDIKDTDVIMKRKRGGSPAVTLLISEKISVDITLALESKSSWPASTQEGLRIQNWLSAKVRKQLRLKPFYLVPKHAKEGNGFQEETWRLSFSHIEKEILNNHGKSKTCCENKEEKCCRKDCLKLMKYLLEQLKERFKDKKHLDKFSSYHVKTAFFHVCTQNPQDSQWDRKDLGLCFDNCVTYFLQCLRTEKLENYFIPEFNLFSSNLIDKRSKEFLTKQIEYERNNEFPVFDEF
How it was run: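 In 40 mM Tris-HCl pH 7.5, 100 mM NaCl, 10 mM MgCl2, ISD (0.5 μM) started the reaction with hcGAS-ΔN (1.5 μM), ATP (1 mM) and GTP (1 mM). Incubation was 2 h at 37 °C, with compounds screened at 20 μM. 2',3'-cGAMP formed was quantified with an RNA-based fluorescent biosensor.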

[3] = test system: primary bone marrow-derived macrophages (BMDMs) from C57BL/6 mice; test: qPCR of Ifnb1/Cxcl10 mRNA in BMDMs (ISD or HSV-1); assay type: cell-based, mouse
Method: The indicated cells were stimulated with either ISD (Sangon Biotech), HSV-1 (Provided by Dr. Zhengfan Jiang), HSV60mer (Sangon Biotech), SATE-cddA[70], 2’3’-cGAMP (Invivogen, Cat# tlrl-nacga23-1), ADU-S100 (MedChemExpress, Cat# HY-12885A) or Poly(I:C) (Invivogen, Cat# tlrl-pic) after XQ2 or XQ2B treatment. Total RNA was isolated from indicated cells that incubated with the drugs for indicated time or mice tissues by using NucleoZOL reagent (MACHEREY-NAGEL) according to the manufacturer’s instructions. The quantifications of mRNA levels were carried out by real-time PCR using a PerfectStart® Uni RT&qPCR Kit (TransGen Biotech) on the QuantStudio 5 qPCR machine (Applied Biosystems). Samples were carried out in triplicate and the target CT values were normalized to GAPDH CT values. Primers of qPCR used in this study can be found in Supplementary Table S2.
C57BL/6 6–8 weeks old wild type (WT) mice were purchased from Gempharmatech. C57BL/6 Trex1^+/- mice were purchased from Cyagen. Trex1^-/- mice were generated by further mating the male and female Trex1^+/- mice, and 8-week-old male Trex1^-/- mice were used in the experiment. Mice were housed in groups of up to 5 mice/cage at 18 °C − 24 °C ambient temperatures with 40–60% humidity. Mice were maintained on a 12 h light/ dark cycle 6 am to 6 pm. Food and water were available ad libitum. Femurs and tibias were removed from sex-matched mice of 6–8 weeks old, and the ends were clipped. Marrow was pushed from bones by using a syringe, and cell clumps were broken apart into cell particles by pipetting in PBS, and passed through a 70 μm cell strainer. Cells were resuspended in red blood cell lysis buffer (Solarbio) for 5 min after being centrifuged with 200 × g for 5 min, and were resuspended in cell culture media (DMEM) with an additional M-CSF (50 ng/ml) after centrifugation, and then were seeded into a 12-well plate. Half of the cell culture media was replaced with a fresh medium on the third day, and performed a complete media change on the fifth day. BMDMs were used for subsequent experiments after the seventh day. All the animal experiments in these studies were approved and overseen by the ethics committee of the Laboratory Animal Center of Peking University Shenzhen Graduate School in accordance with the Policy on the Care, Welfare, and Treatment of Laboratory Animals. The assigned approval or accreditation number is AP0020005.
Supplementary Fig. 2. […] (a, b) THP1 cells were
(c) L929, p = 0.0005 (Ifnb1),
BMDMs, p = 0.0001 (Ifnb1), p < 0.0001 (Cxcl10).
representative of three independent experiments in (a-g). (Data are presented as mean ± SD, n = 3 independent
Source data are provided as a Source Data file.

Row | Compound | AUC(0-inf) [1] [µg·h/mL] | AUC(0-t) [1] [µg·h/mL] | Cmax [1] [µg/mL] | MRT last [1] [min] | Tmax [1] [min] | Vd [1] [L/kg] | clearance [1] [mL/min/kg] | Remaining activity (%), Fig. 1a source data ([2]; 20 μM, replicate values) | remaining activity at 20 µM ([2]; 20 μM, replicate values, read-out: Remaining activity (%), Fig. 1a source data) [%] | Inhibition % ([2]; peptides screened at 20 μM, Supplementary Table 1 / Fig. S5b, 20 µM) [%] | inhibition at 20 µM ([2]; peptides screened at 20 μM, Supplementary Table 1 / Fig. S5b, read-out: Inhibition %) [%] | Ifnb1 and Cxcl10 expression induced by ISD and HSV-1 ([3]; 10 μM) | Cxcl10 mRNA (Fig. S2d) ([3]; HSV-1+XQ2) | Ifnb1 mRNA (Fig. S2d) ([3]; HSV-1+XQ2) | Cxcl10 mRNA (Fig. S2c) ([3]; ISD+XQ2) | Ifnb1 mRNA (Fig. S2c) ([3]; ISD+XQ2) | Cxcl10 mRNA (Fig. S2c) ([3]; XQ2 alone) | Cxcl10 mRNA (Fig. S2d) ([3]; XQ2 alone) | Ifnb1 mRNA (Fig. S2c) ([3]; XQ2 alone) | Ifnb1 mRNA (Fig. S2d) ([3]; XQ2 alone)
1 | CC(C)C[C@@H]1NC(=O)[C@H](CCCNC(=N)N)NC(=O)[C@H](C(C)C)NC(=O)[C@@H]2CCCN2C(=O)[C@@H](Cc2ccccc2)NC(=O)[C@H](CC(C)C)NC(=O)[C@H](CCCNC(=N)N)NC(=O)[C@H]([C@@H](C)O)NC(=O)[C@H](C)NC(=O)[C@@H](Cc2ccccc2)NC1=O [XQ2B] (cyclo([dF]ATRL[dF]PVRL)) | 157 | 135 | 105 | 72 | 4.98 | 0.095 | 1.18 |  |  |  |  |  |  |  |  |  |  |  |  | 
2 | CC(C)C[C@@H]1NC(=O)[C@H](CCCNC(=N)N)NC(=O)[C@H](C(C)C)NC(=O)[C@@H]2CCCN2C(=O)[C@@H](Cc2ccccc2)NC(=O)[C@H](CC(C)C)NC(=O)[C@H](CCCNC(=N)N)NC(=O)[C@H](C(C)C)NC(=O)[C@H](C)NC(=O)[C@@H](Cc2ccccc2)NC1=O [XQ2, Cyclo (LfAVRLfPVR)] (cyclo(L[dF]AVRL[dF]PVR)) |  |  |  |  |  |  |  | 59.4781% and 59.6712% | 59.5 | ≥ 40 | 40 | significantly inhibited the expression of Ifnb1 and its downstream gene Cxcl10 | 143.811 and 140.79 and 131.38 | 30.4765 and 34.353 and 35.6259 | 62.8779 and 59.0359 and 62.3708 | 709.298 and 846.919 and 741.167 | 1.406 and 1.738 and 1.597 | 1.406 and 1.738 and 1.597 | 0.9266 and 0.5519 and 1.072 | 0.9266 and 0.5519 and 1.072
